Data: EP1831198B1, “PYRIDINE CARBOXAMIDE DERIVATIVES FOR USE AS ANTICANCER AGENTS” (AstraZeneca AB, priority 2004, dated 2006)

Molecular target: human recombinant, purified wild type His-B-Raf protein kinase (Homo sapiens, UniProt P15056)
Test: B-Raf in vitro ELISA assay
Type: biochemical
Conditions: phosphorylation of MEK1; 2.5 nM B-Raf, 0.15 µM MEK1, 10 µM ATP
Description: Data was graphed and IC50s calculated using Excel Fit (Microsoft).

Sequence of human recombinant, purified wild type His-B-Raf protein kinase (P15056 whole entry): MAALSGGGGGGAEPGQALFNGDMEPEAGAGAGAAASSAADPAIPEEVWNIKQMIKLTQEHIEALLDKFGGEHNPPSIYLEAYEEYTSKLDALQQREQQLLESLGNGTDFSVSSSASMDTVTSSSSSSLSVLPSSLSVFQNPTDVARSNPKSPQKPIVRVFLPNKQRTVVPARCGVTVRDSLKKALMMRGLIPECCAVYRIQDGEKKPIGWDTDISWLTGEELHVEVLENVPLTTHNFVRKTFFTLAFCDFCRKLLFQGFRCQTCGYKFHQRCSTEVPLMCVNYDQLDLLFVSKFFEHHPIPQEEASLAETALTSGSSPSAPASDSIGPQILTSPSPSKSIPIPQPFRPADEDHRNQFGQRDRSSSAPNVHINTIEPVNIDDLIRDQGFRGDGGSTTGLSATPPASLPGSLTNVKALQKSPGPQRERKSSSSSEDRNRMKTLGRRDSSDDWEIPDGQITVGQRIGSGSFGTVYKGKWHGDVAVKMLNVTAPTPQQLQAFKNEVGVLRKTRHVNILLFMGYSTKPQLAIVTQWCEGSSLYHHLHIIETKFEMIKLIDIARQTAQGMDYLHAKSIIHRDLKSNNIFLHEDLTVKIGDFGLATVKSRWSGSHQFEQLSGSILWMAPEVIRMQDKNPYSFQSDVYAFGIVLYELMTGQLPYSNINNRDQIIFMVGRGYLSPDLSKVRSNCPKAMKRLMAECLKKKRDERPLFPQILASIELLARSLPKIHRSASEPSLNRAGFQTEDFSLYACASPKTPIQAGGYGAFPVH

- IC50: 1.08 µM
SMILES: Cc1ccc(NC(=O)c2cccc3c2OCC3)cc1C(=O)Nc1cccnc1 [Example 9, N-{4-Methyl-3-[(pyridin-3-ylamino)carbonyl]phenyl}-2,3-dihydro-1-benzofuran-7-carboxamide]
